In patent US8518976B2, “Heteroaryl-substituted amides comprising a saturated linker group, and their use as pharmaceuticals” (Sanofi, priority 2005, dated 2013):
pEC50: −log10 of the molar value.

Test system: eNOS promoter
Experiment: Activation of eNOS transcription (eNOS promoter-luciferase reporter gene assay)
Assay type: cell-based
Details: human endothelial cell line stably transfected with eNOS promoter-luciferase construct, 18 h incubation, determined graphically; read-out: EC50 values of transcription induction ratios (TIR)
Description: Activation of eNOS transcription was measured as described in detail by L^1 et al., “Activation of protein kinase C alpha and/or epsilon enhances transcription of the human endothelial nitric oxide synthase gene”, Mol. Pharmacol. 53 (1998) 630. Briefly, a 3.5 kB long fragment 5′ of the starting codon of the eNOS gene was cloned, sequenced and cloned in firefly luciferase expression plasmids to monitor activation of the eNOS promoter by reporter gene activity. A human endothelial cell line stable transfected and expressing this promoter-reporter construct was used for compound testing. Cells were incubated for 18 h with the compounds.
All compounds were dissolved in sterile dimethyl sulfoxide (DMSO). A final concentration of 0.5% DMSO in complete medium was allowed. Induction of reporter gene expression in these cells was measured using a standard luciferase assay system (Promega, Cat. No. E150) according to the manufacturer's instructions. Luciferase induction in cells incubated with compounds were compared to those incubated with solvent alone. The ratio of both activities (transcription induction ratio, TIR) was plotted as a function of compound concentration. Typically, TIR values started at low concentrations at a ratio of 1, indicating no compound effect, and extended up to a maximum TIR value TIR(max) which indicates the increase of the eNOS transcription. EC50 values of transcription induction ratios as a function of compound concentration were determined graphically.

| pEC50 | SMILES |
| --- | --- |
| 5.30 to 6.30 | O=C1CSCCN1CCCc1ccc(-c2ccccc2Cl)nc1 [Example 7, 4-(3-(6-(2-Chlorophenyl)pyridin-3-yl)propyl)thiomorpholin-3-one] |
| 5.30 to 6.30 | O=C(O)CCCC(=O)NCCCc1ccc(-c2ccc(F)cc2)nc1 [Example 17, 4-(3-(6-(4-Fluorophenyl)pyridin-3-yl)propylcarbamoyl)butyric acid] |
| > 6.30 | O=C1CCCCCN1CCCc1ccc(-c2ccc(F)cc2)nc1 [Example 18, 1-(3-(6-(4-Fluorophenyl)pyridin-3-yl)propyl)azepan-2-one] |
| > 6.30 | O=C1CSC=CN1CCCc1ccc(-c2ccc(F)cc2)nc1 [Example 25, 4-(3-(6-(4-Fluorophenyl)pyridin-3-yl)propyl)-4H-[1,4]thiazin-3-one] |
| 5.30 to 6.30 | O=C1CCC(=O)N1CCNc1nc(-c2ccc(F)cc2)cs1 [Example 34, 1-(2-(4-(4-Fluorophenyl)thiazol-2-ylamino)ethyl)pyrrolidine-2,5-dione] |
| > 6.30 | O=C1CCC(=O)N1CCOc1ccc(-c2ccc(F)c(Cl)c2)nc1 [Example 50, 1-(2-(6-(3-Chloro-4-fluorophenyl)pyridin-3-yloxy)ethyl)pyrrolidine-2,5-dione] |
| > 6.30 | Cc1csc(-c2ccc(OCCN3C(=O)CCC3=O)cn2)c1 [Example 52, 1-(2-(6-(4-methylthiophen-2-yl)pyridin-3-yloxy)ethyl)pyrrolidine-2,5-dione] |
| 5.30 to 6.30 | N#Cc1cccc(-c2ccc(OCCN3C(=O)CCC3=O)cn2)c1 [Example 64, 1-(2-(6-(3-cyanophenyl)pyridin-3-yloxy)ethyl)pyrrolidine-2,5-dione] |
| 5.30 to 6.30 | O=C1CCC(=O)N1CCOc1ccc(-c2cccc3ccccc23)nc1 [Example 66, 1-(2-(6-(naphthalen-1-yl)pyridin-3-yloxy)ethyl)pyrrolidine-2,5-dione] |
| > 6.30 | Cc1cc(-c2ccc(OCCN3C(=O)CCC3=O)cn2)ccc1F [Example 86, 1-(2-(6-(4-fluoro-3-methylphenyl)pyridin-3-yloxy)ethyl)pyrrolidine-2,5-dione] |
